Experimental data published in patent US20240416143A1, “PHOTONIC ANTIMICROBIAL WOUND SURFACE DRESSING” (The General Hospital Corporation, priority 2021, published 2024).

Experiments:
Experiment in all cases: Photoinactivation of 48-hour in vitro biofilms by adjuvant/antibiotic + antimicrobial blue light
MRSA biofilm [1] = type: cell-based, methicillin-resistant Staphylococcus aureus; conditions: 48 h biofilm; aBL 405 nm, 50-250 J/cm^2
Method: (§1) The bacterial suspension was grown in a shaking incubator overnight in BHI broth. Cells were collected by centrifugation at 4,000 rpm for 5 minutes and suspended in PBS at a density of 10^6 CFU/mL. Then, the biofilms were grown for 48 hours (unless otherwise specified) in 96-well microtiter plates as described previously [Ref. 27], with a renewal of the media every 24 hours. Following the 48-hour biofilm growth, fresh 200 μL of PBS with or without menadione in different concentrations were added to the wells and the biofilms were incubated in the dark at 25° C. for 1 hour: 0, 0.5, 1, and 2 μg/mL for MRSA USA300, AF0001, IQ0064; 0, 1, 10, 30 and 50 μg/mL for P. aeruginosa PA01; and 0, 100, and 150 μg/mL for E. coli ATCC 25922. After that, the control and the menadione-treated biofilms were maintained without irradiation (“menadione/dark”). Simultaneously, the aBL was delivered to the other biofilm groups testing different power densities (50, 30, 15, and 10 mW/cm^2) while keeping the same radiant exposure of 250 J/cm^2. After the light exposure, the biofilms were carefully washed two times with PBS and 200 μL of PBS was added to each well. Then, the bacterial biofilms in each well were harvested by scratching with a sterile pipette tip and three wells of each group were pooled together in a 1.5 mL microcentrifuge tube. The total volume obtained, 600 μL (3 wells), was sonicated using a Branson 2510 Water Bath Sonicator (Marshall Scientific, LLC) for 5 minutes and the CFU was determined by 10-fold serial dilutions in PBS on BHI agar plates. CFU was counted after overnight incubation at 37° C. Experiments were performed in triplicate.
A bacterial suspension was grown in a shaking incubator overnight in BHI broth. Cells were collected by centrifugation at 4,000 rpm for 5 minutes and suspended in PBS at a density of 10^6 CFU/mL. Then, the biofilms were grown for 48 hours in 96-well microtiter plates with a renewal of the media every 24 hours. Following the 48-hour biofilm growth, fresh 200 μL of PBS with the tetracyclines minocycline, doxycycline, and demeclocycline in different concentrations were added to the wells and the biofilms were incubated in the dark at 25° C. for 1 hour: 0, 0.25, 0.5, and 1 μg/mL for minocycline; 0, 0.5, 1, and 2 μg/mL for doxycycline; and 0, 0.5, 1, and 2 for demeclocycline. After that, the control and the tetracycline-treated biofilms were maintained without irradiation (“menadione/dark”). Simultaneously, the aBL (405 nm) was delivered to the other biofilm groups testing different power densities (50, 30 mW/cm^2) while keeping the radiant exposures of 50-250 J/cm^2. After the light exposure, the biofilms were carefully washed two times with PBS and 200 μL of PBS was added to each well. Then, the bacterial biofilms in each well were harvested by scratching with a sterile pipette tip and three wells of each group were pooled together in a 1.5 mL microcentrifuge tube. The total volume obtained, 600 μL (3 wells), was sonicated using a Branson 2510 Water Bath Sonicator (Marshall Scientific, LLC) for 5 minutes and the CFU/mL was determined by 10-fold serial dilutions in PBS on BHI agar plates. CFU was counted after overnight incubation at 37° C.

P. aeruginosa biofilm = type: cell-based, Pseudomonas aeruginosa; conditions: 48 h biofilm; aBL 405 nm, 50-250 J/cm^2
Method: The bacterial suspension was grown in a shaking incubator overnight in BHI broth. Cells were collected by centrifugation at 4,000 rpm for 5 minutes and suspended in PBS at a density of 10^6 CFU/mL. Then, the biofilms were grown for 48 hours (unless otherwise specified) in 96-well microtiter plates as described previously [Ref. 27], with a renewal of the media every 24 hours. Following the 48-hour biofilm growth, fresh 200 μL of PBS with or without menadione in different concentrations were added to the wells and the biofilms were incubated in the dark at 25° C. for 1 hour: 0, 0.5, 1, and 2 μg/mL for MRSA USA300, AF0001, IQ0064; […]; and 0, 100, and 150 μg/mL for E. coli ATCC 25922. After that, the control and the menadione-treated biofilms were maintained without irradiation (“menadione/dark”). Simultaneously, the aBL was delivered to the other biofilm groups testing different power densities (50, 30, 15, and 10 mW/cm^2) while keeping the same radiant exposure of 250 J/cm^2. After the light exposure, the biofilms were carefully washed two times with PBS and 200 μL of PBS was added to each well. Then, the bacterial biofilms in each well were harvested by scratching with a sterile pipette tip and three wells of each group were pooled together in a 1.5 mL microcentrifuge tube. The total volume obtained, 600 μL (3 wells), was sonicated using a Branson 2510 Water Bath Sonicator (Marshall Scientific, LLC) for 5 minutes and the CFU was determined by 10-fold serial dilutions in PBS on BHI agar plates. CFU was counted after overnight incubation at 37° C. Experiments were performed in triplicate.
(§2) A bacterial suspension was grown in a shaking incubator overnight in BHI broth. Cells were collected by centrifugation at 4,000 rpm for 5 minutes and suspended in PBS at a density of 10^6 CFU/mL. Then, the biofilms were grown for 48 hours in 96-well microtiter plates with a renewal of the media every 24 hours. Following the 48-hour biofilm growth, fresh 200 μL of PBS with the tetracyclines minocycline, doxycycline, and demeclocycline in different concentrations were added to the wells and the biofilms were incubated in the dark at 25° C. for 1 hour: 0, 0.25, 0.5, and 1 μg/mL for minocycline; 0, 0.5, 1, and 2 μg/mL for doxycycline; and 0, 0.5, 1, and 2 for demeclocycline. After that, the control and the tetracycline-treated biofilms were maintained without irradiation (“menadione/dark”). […] The total volume obtained, 600 μL (3 wells), was sonicated using a Branson 2510 Water Bath Sonicator (Marshall Scientific, LLC) for 5 minutes and the CFU/mL was determined by 10-fold serial dilutions in PBS on BHI agar plates. CFU was counted after overnight incubation at 37° C.

E. coli biofilm = type: cell-based, Escherichia coli; conditions: 48 h biofilm; aBL 405 nm, 50-250 J/cm^2
Method: as §1, §2

MRSA biofilm [2] = type: cell-based, methicillin-resistant Staphylococcus aureus; conditions: 48 h biofilm

CN(C)[C@@H]1C(O)=C(C(N)=O)C(=O)[C@@]2(O)C(O)=C3C(=O)c4c(O)ccc(Cl)c4[C@@H](O)[C@H]3C[C@@H]12 [demeclocycline]
antimicrobial effect of aBL combined with tetracycline (MRSA biofilm [1]): enhancement in antimicrobial effects
antimicrobial effect of aBL combined with tetracycline (P. aeruginosa biofilm): enhancement in antimicrobial effects
antimicrobial effect of aBL combined with tetracycline (E. coli biofilm): enhancement in antimicrobial effects

CN[C@H](CC(C)C)C(=O)N[C@H]1C(=O)N[C@@H](CC(N)=O)C(=O)N[C@H]2C(=O)N[C@H]3C(=O)N[C@H](C(=O)N[C@H](C(=O)O)c4cc(O)cc(O)c4-c4cc3ccc4O)[C@H](O)c3ccc(c(Cl)c3)Oc3cc2cc(c3O[C@@H]2O[C@H](CO)[C@@H](O)[C@H](O)[C@H]2O[C@H]2C[C@](C)(N)[C@H](O)[C@H](C)O2)Oc2ccc(cc2Cl)[C@H]1O [vancomycin]
killing in biofilm by vancomycin combined with aBL (MRSA biofilm [2]; vancomycin 500 μg/mL + aBL 50 mW/cm^2, 250 J/cm^2): 2.65 log10 CFU/mL
effect on biofilms of vancomycin combined with aBL (MRSA biofilm [2]; vancomycin 1 mg/mL): only minimal effects
improvement of aBL antimicrobial effect by vancomycin (MRSA biofilm [2]; vancomycin 5, 15 and 50 μg/mL + aBL 250 J/cm^2): did not show any improvement
